Here are results for one molecule from US9018219B2, “Fused aminodihydropyrimidine derivative” (Shionogi & Co., Ltd., priority 2010, dated 2015).

One series addresses T1, Recombinant human BACE-1 (Homo sapiens, UniProt P56817).
T1 construct: purchased R&D Systems
Briefly: Assay of BACE1 inhibitory activity. The series is classed as biochemical. The conditions noted are these: Recombinant human BACE1 7.4 nmol/L, substrate peptide 18 nmol/L, pH 5.0, 30° C. for 3 hours; read-out: IC50 (50% inhibitory concentration against the enzymatic activity). As to the method: 48.5 μL of substrate peptide solution (Biotin-XSEVNLDAEFRHDSGC-Eu: X=ε-amino-n-capronic acid, Eu=Europium cryptate) was added to each well of 96-hole half-area plate (a black plate: Costar), and after addition of 0.5 μl of the compound of the present invention (N,N′-dimethylformamide solution) and 1 μl of Recombinant human BACE-1 (R&D Systems), the reaction mixture was incubated at 30° C. for 3 hours. The substrate peptide was synthesized by reacting Cryptate TBPCOOH mono SMP (CIS bio international) with Biotin-XSEVNLDAEFRHDSGC (Peptide Institute, Inc.). The final concentrations of the substrate peptide and Recombinant human BACE1 were adjusted to 18 nmol/L and 7.4 nmol/L, respectively, and the reaction was performed in sodium acetate buffer (50 mmol/L sodium acetate, pH 5.0, 0.008% Triton X-100). After the incubation for reaction, 50 μl of 8.0 μg/ml Streptavidin-XL665 (CIS bio international) dissolved in phosphate buffer (150 mmol/L K2HPO4—KH2PO4, pH 7.0, 0.008% Triton X-100, 0.8 mol/L KF) was added to each well and left stand at 30° C. for 1 hour. After then, fluorescence intensity was measured (excitation wavelength: 320 nm, measuring wavelength: 620 nm and 665 nm) using Wallac 1420 multilabel counter (Perkin Elmer life sciences). Enzymatic activity was determined from counting ratio of each wavelength (10,000×Count 665/Count 620) and 50% inhibitory concentration against the enzymatic activity (IC50) was calculated.

Series [1] deals with T2, human ether-a-go-go related gene (hERG) channel (Homo sapiens, UniProt Q12809).
T2 construct: expressed in transfected cells; host or cells: HEK293
T2 sequence (Q12809 whole entry): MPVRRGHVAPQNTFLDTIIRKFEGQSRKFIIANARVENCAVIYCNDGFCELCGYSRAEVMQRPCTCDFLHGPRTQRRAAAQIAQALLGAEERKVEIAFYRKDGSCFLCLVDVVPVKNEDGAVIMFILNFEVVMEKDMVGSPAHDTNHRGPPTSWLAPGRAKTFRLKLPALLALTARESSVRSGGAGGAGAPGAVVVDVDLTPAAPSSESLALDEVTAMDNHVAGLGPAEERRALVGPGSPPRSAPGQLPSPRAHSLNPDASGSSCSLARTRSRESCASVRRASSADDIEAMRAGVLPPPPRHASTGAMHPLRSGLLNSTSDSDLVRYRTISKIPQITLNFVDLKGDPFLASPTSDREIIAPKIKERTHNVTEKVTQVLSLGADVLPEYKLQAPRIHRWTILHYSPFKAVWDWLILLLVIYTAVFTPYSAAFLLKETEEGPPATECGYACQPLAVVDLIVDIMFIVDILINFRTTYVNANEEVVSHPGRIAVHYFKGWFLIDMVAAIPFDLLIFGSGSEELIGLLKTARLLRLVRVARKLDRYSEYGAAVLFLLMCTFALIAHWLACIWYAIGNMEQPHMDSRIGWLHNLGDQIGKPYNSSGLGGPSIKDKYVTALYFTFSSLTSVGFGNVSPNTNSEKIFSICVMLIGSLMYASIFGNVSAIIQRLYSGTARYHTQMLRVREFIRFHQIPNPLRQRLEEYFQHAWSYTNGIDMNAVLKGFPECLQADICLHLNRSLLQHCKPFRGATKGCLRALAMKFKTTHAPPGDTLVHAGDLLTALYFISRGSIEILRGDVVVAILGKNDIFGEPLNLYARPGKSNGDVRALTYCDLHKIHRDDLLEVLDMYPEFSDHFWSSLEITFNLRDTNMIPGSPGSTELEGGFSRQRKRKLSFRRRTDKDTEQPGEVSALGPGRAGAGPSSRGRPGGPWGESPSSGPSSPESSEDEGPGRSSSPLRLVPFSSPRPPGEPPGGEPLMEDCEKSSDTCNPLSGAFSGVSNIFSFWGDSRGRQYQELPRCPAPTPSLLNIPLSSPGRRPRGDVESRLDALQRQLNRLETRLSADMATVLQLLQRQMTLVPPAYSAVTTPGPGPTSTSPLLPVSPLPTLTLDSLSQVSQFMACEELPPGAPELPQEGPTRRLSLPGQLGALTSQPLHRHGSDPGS
Briefly: hERG test. The series is classed as cell-based. The conditions noted are these: HEK293 cells expressing hERG channel, whole cell patch clamp, 10 minutes, concentration not given. The source says: For the purpose of assessing risk of an electrocardiogram QT interval prolongation, effects on delayed rectifier K+ current (IKr), which plays an important role in the ventricular repolarization process, of the compound of the present invention was studied using HEK293 cells expressing human ether-a-go-go related gene (hERG) channel.
A cell was retained at a membrane potential of −80 mV by whole cell patch clamp method using an automated patch clamp system (PatchXpress 7000A, Axon Instruments Inc.) and leakage potential at −50 mV was generated. IKr induced by depolarization pulse stimulation at +40 mV for 2 seconds and, further, repolarization pulse stimulation at −50 mV for 2 seconds was recorded. […] From the recording IKr, an absolute value of the tail peak current was measured based on the current value at the resting membrane potential using an analysis software (DataXpress ver.1, Molecular Devices Corporation). Further, the % inhibition relative to the tail peak current before application of the compound of the present invention was calculated, and compared with the vehicle-applied group (0.1% dimethyl sulfoxide solution) to assess influence of the compound of the present invention on IKr.
For orientation: Block of hERG is tested as a sign of cardiac risk.

In a further series the target is T3, CYP2C19 (Homo sapiens, UniProt P33261).
T3 construct: enzyme, pooled human hepatic microsome 0.2 mg protein/mL; from tissue
T3 sequence (P33261 whole entry): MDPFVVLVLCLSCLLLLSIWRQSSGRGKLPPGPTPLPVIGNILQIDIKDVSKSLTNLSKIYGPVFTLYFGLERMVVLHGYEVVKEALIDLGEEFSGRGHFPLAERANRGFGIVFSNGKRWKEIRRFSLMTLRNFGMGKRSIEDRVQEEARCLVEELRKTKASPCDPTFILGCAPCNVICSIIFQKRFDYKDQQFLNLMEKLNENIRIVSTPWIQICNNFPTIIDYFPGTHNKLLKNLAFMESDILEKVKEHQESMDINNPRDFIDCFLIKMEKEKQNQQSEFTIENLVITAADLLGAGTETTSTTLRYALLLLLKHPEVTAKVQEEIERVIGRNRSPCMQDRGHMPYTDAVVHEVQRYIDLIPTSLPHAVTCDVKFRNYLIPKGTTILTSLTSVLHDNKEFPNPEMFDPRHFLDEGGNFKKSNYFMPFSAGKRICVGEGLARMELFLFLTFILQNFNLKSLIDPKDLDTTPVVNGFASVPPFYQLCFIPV
Briefly: CYP inhibition test (CYP2C19). The series is classed as in vitro ADME. The conditions noted are these: pooled human hepatic microsome 0.2 mg protein/mL, 15 minutes, 37° C.; read-out: IC50 CYP2C19 (mephenyloin 4′-hydroxylation). The source says: (§1) Using commercially available pooled human hepatic microsome, and employing, as markers, 7-ethoxyresorufin O-deethylation (CYP1A2), tolbutamide methyl-hydroxylation (CYP2C9), mephenyloin 4′-hydroxylation (CYP2C19), dextromethorphan O-demethylation (CYP2D6), and terfenedine hydroxylation (CYP3A4) as typical substrate metabolism reactions of human main five CYP enzyme forms (CYP1A2, 2C9, 2C19, 2D6, 3A4), an inhibitory degree of each metabolite production amount by a compound of the present invention was assessed. […] After the centrifugation at 3000 rpm for 15 minutes, resorufin (CYP1A2 metabolite) in the supernatant was quantified by a multi-label counter and hydroxytolbutamide (CYP2C9 metabolite), 4′-hydroxymephenyloin (CYP2C19 metabolite), dextrorphan (CYP2D6 metabolite), and terfenadine alcohol metabolite (CYP3A4 metabolite) were quantified by LC/MS/MS. Addition of only DMSO being a solvent dissolving a compound to a reaction system was adopted as a control (100%), remaining activity (%) was calculated and IC50 was calculated by reverse presumption by a logistic model using a concentration and an inhibition rate.

The target of the next series is T4, CYP2D6 (Homo sapiens, UniProt P10635).
T4 construct: enzyme, pooled human hepatic microsome 0.2 mg protein/mL; from tissue
T4 sequence (P10635 whole entry): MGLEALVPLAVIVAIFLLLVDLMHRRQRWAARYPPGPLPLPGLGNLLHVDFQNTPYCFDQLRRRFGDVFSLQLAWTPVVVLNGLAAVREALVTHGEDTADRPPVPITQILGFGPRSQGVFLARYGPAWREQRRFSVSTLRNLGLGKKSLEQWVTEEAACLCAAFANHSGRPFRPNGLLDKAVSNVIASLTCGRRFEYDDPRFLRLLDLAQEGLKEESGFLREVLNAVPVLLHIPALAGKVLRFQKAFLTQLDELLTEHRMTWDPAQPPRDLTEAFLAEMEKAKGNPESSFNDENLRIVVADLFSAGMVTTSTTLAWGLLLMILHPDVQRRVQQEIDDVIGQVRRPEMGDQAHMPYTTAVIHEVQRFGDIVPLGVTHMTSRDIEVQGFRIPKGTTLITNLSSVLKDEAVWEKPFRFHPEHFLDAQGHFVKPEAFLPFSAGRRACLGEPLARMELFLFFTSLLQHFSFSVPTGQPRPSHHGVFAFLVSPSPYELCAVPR
Briefly: CYP inhibition test (CYP2D6). The series is classed as in vitro ADME. The conditions noted are these: pooled human hepatic microsome 0.2 mg protein/mL, 15 minutes, 37° C.; read-out: IC50 CYP2D6 (dextromethorphan O-demethylation).
Text: as §1

T1 sequence (P56817 46-501): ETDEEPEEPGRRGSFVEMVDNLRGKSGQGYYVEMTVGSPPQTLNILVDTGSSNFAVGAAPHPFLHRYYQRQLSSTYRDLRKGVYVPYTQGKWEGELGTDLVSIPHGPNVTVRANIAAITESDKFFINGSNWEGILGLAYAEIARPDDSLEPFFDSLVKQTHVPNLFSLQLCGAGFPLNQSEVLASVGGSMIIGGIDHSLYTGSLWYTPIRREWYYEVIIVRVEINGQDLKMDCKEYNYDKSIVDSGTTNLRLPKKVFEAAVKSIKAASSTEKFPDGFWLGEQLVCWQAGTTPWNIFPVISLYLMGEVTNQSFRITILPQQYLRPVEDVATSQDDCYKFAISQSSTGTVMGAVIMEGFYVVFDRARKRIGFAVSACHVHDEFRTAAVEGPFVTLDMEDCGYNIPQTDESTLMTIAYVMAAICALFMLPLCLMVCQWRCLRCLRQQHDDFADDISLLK

For the molecule `C[C@@]1(c2cc(-c3cccnc3F)ccc2F)Cc2nccn2C(N)=N1` [Compound I-2], the figures for the IC50 on Recombinant human BACE-1, at CYP2C19 and on CYP2D6 were no more than 1 µM, greater than 20 µM and greater than 20 µM, respectively. Besides, the “% inhibition of IKr tail peak current” value in series [1] is 12.3%.
